# Assay results as given in ChEMBL document CHEMBL1201862, “PubChem BioAssay data set” (2004).
#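 Protocol summary: plate cells (96-well), add compound at 5 concentrations, incubate 48 h, interpolate endpoints linearly. GI50 = concentration required for 50% inhibition of growth.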 The source made the active and inactive calls. Cut-off read from the data, not from the text of the source: active = GI50 up to about 1.1 µM and inactive = higher.
# Key:
# Assay in all cases: NCI tumour cell line growth inhibition, 48 h
# A498 = system: A498
# K562 = system: K562
# Malme-3M = system: Malme-3M
# IGROV-1 = system: IGROV-1
# MOLT-4 = system: MOLT-4
# NCI-H226 = system: NCI-H226
# MDA-MB-231 = system: MDA-MB-231
# KM12 = system: KM12
# TK-10 = system: TK-10
# HCT-15 = system: HCT-15
# SN12C = system: SN12C
# NCI-H23 = system: NCI-H23
# OVCAR-5 = system: OVCAR-5
# BT-549 = system: BT-549
# MDA-MB-435 = system: MDA-MB-435
# SK-MEL-28 = system: SK-MEL-28
# PC-3 = system: PC-3
# HOP-62 = system: HOP-62
# MDA-N = system: MDA-N
# SW-620 = system: SW-620
# NCI/ADR-RES = system: NCI/ADR-RES
# HOP-92 = system: HOP-92
# A549 = system: A549
# HCT-116 = system: HCT-116
# CAKI-1 = system: CAKI-1
# OVCAR-4 = system: OVCAR-4
# SK-OV-3 = system: SK-OV-3
# RPMI-8226 = system: RPMI-8226
# EKVX = system: EKVX
# MCF7 = system: MCF7
# Hs-578T = system: Hs-578T
# OVCAR-8 = system: OVCAR-8
# HL-60 = system: HL-60
# NCI-H522 = system: NCI-H522
# SNB-19 = system: SNB-19
# T47D = system: T47D
# M14 = system: M14
# UO-31 = system: UO-31
# ACHN = system: ACHN
# OVCAR-3 = system: OVCAR-3
# UACC-257 = system: UACC-257
# UACC-62 = system: UACC-62
# SF-295 = system: SF-295
# COLO 205 = system: COLO 205
# LOX IMVI = system: LOX IMVI
# SK-MEL-5 = system: SK-MEL-5
# 786-0 = system: 786-0
# SK-MEL-2 = system: SK-MEL-2
# NCI-H460 = system: NCI-H460
# U-251 = system: U-251
# HT-29 = system: HT-29
# RXF 393 = system: RXF 393
# SF-268 = system: SF-268
# SNB-75 = system: SNB-75
# DU-145 = system: DU-145
# SR = system: SR
# SF-539 = system: SF-539
# HCC 2998 = system: HCC 2998
# CCRF-CEM = system: CCRF-CEM
structure (smiles),measurement,setting,value
O=C(O)CSCCc1ccccc1,GI50,A498,> 100 µM (inactive)
same,GI50,K562,> 100 µM (inactive)
same,GI50,Malme-3M,> 100 µM (inactive)
same,GI50,IGROV-1,> 100 µM (inactive)
same,GI50,MOLT-4,> 100 µM (inactive)
same,GI50,NCI-H226,> 100 µM (inactive)
same,GI50,MDA-MB-231,> 100 µM (inactive)
same,GI50,KM12,> 100 µM (inactive)
same,GI50,TK-10,> 100 µM (inactive)
same,GI50,HCT-15,> 100 µM
same,GI50,SN12C,> 100 µM (inactive)
same,GI50,NCI-H23,> 100 µM (inactive)
same,GI50,OVCAR-5,> 100 µM (inactive)
same,GI50,BT-549,> 100 µM (inactive)
same,GI50,MDA-MB-435,> 100 µM (inactive)
same,GI50,SK-MEL-28,> 100 µM (inactive)
same,GI50,PC-3,> 100 µM (inactive)
same,GI50,HOP-62,> 100 µM (inactive)
same,GI50,MDA-N,> 100 µM (inactive)
same,GI50,SW-620,> 100 µM (inactive)
same,GI50,NCI/ADR-RES,> 100 µM (inactive)
same,GI50,HOP-92,> 100 µM (inactive)
same,GI50,A549,> 100 µM (inactive)
same,GI50,HCT-116,> 100 µM (inactive)
same,GI50,CAKI-1,> 100 µM (inactive)
same,GI50,OVCAR-4,> 100 µM (inactive)
same,GI50,SK-OV-3,> 100 µM (inactive)
same,GI50,RPMI-8226,> 100 µM (inactive)
same,GI50,EKVX,> 100 µM (inactive)
same,GI50,MCF7,> 100 µM (inactive)
same,GI50,Hs-578T,> 100 µM (inactive)
same,GI50,OVCAR-8,> 100 µM (inactive)
same,GI50,HL-60,0.156 µM (active)
same,GI50,NCI-H522,> 100 µM (inactive)
same,GI50,SNB-19,> 100 µM (inactive)
same,GI50,T47D,> 100 µM (inactive)
same,GI50,M14,> 100 µM (inactive)
same,GI50,UO-31,> 100 µM (inactive)
same,GI50,ACHN,> 100 µM (inactive)
same,GI50,OVCAR-3,> 100 µM (inactive)
same,GI50,UACC-257,> 100 µM (inactive)
same,GI50,UACC-62,> 100 µM (inactive)
same,GI50,SF-295,> 100 µM (inactive)
same,GI50,COLO 205,> 100 µM (inactive)
same,GI50,LOX IMVI,> 100 µM (inactive)
same,GI50,SK-MEL-5,> 100 µM (inactive)
same,GI50,786-0,> 100 µM (inactive)
same,GI50,SK-MEL-2,> 100 µM (inactive)
same,GI50,NCI-H460,> 100 µM (inactive)
same,GI50,U-251,> 100 µM (inactive)
same,GI50,HT-29,> 100 µM (inactive)
same,GI50,RXF 393,> 100 µM (inactive)
same,GI50,SF-268,> 100 µM (inactive)
same,GI50,SNB-75,> 100 µM (inactive)
same,GI50,DU-145,> 100 µM (inactive)
same,GI50,SR,> 100 µM (inactive)
same,GI50,SF-539,> 100 µM (inactive)
N=c1n(C(=O)N2CCCC2)c2cc(Cl)ccc2n1C1=NCCN1,GI50,A498,> 100 µM (inactive)
same,GI50,K562,40.6 µM (inactive)
same,GI50,Malme-3M,99.8 µM (inactive)
same,GI50,IGROV-1,73.3 µM (inactive)
same,GI50,MOLT-4,41.7 µM (inactive)
same,GI50,NCI-H226,> 100 µM (inactive)
same,GI50,MDA-MB-231,67.9 µM (inactive)
same,GI50,KM12,> 100 µM (inactive)
same,GI50,TK-10,86.5 µM (inactive)
same,GI50,HCT-15,40.6 µM
same,GI50,SN12C,70.5 µM (inactive)
same,GI50,HCC 2998,> 100 µM (inactive)
same,GI50,OVCAR-5,> 100 µM (inactive)
same,GI50,BT-549,60.1 µM (inactive)
same,GI50,MDA-MB-435,52 µM (inactive)
same,GI50,SK-MEL-28,95.3 µM (inactive)
same,GI50,PC-3,86.9 µM (inactive)
same,GI50,HOP-62,> 100 µM (inactive)
same,GI50,MDA-N,61.8 µM (inactive)
same,GI50,SW-620,52.6 µM (inactive)
same,GI50,NCI/ADR-RES,93.5 µM (inactive)
same,GI50,HOP-92,15.2 µM (inactive)
same,GI50,A549,> 100 µM (inactive)
same,GI50,HCT-116,55.5 µM (inactive)
same,GI50,CAKI-1,43.2 µM (inactive)
same,GI50,OVCAR-4,> 100 µM (inactive)
same,GI50,SK-OV-3,> 100 µM (inactive)
same,GI50,RPMI-8226,15.7 µM (inactive)
same,GI50,EKVX,> 100 µM (inactive)
same,GI50,MCF7,35.8 µM (inactive)
same,GI50,Hs-578T,> 100 µM (inactive)
same,GI50,OVCAR-8,88.3 µM (inactive)
same,GI50,HL-60,38.8 µM (inactive)
same,GI50,NCI-H522,38.6 µM (inactive)
same,GI50,SNB-19,> 100 µM (inactive)
same,GI50,T47D,24.2 µM (inactive)
same,GI50,M14,59.6 µM (inactive)
same,GI50,ACHN,43.7 µM (inactive)
same,GI50,OVCAR-3,80.5 µM (inactive)
same,GI50,UACC-257,> 100 µM (inactive)
same,GI50,UACC-62,> 100 µM (inactive)
same,GI50,SF-295,> 100 µM (inactive)
same,GI50,COLO 205,> 100 µM (inactive)
same,GI50,LOX IMVI,28.3 µM (inactive)
same,GI50,SK-MEL-5,83 µM (inactive)
same,GI50,786-0,54 µM (inactive)
same,GI50,SK-MEL-2,33.1 µM (inactive)
same,GI50,NCI-H460,> 100 µM (inactive)
same,GI50,U-251,83.2 µM (inactive)
same,GI50,HT-29,75.7 µM (inactive)
same,GI50,RXF 393,82.4 µM (inactive)
same,GI50,SF-268,> 100 µM (inactive)
same,GI50,CCRF-CEM,41.7 µM (inactive)
same,GI50,DU-145,50 µM (inactive)
same,GI50,SR,38.2 µM (inactive)
same,GI50,SF-539,55.2 µM (inactive)
